Measurements reported in ChEMBL document CHEMBL1201862, “PubChem BioAssay data set” (2004).
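In this assay, cells in 96-well plates receive the compound at five concentrations for 48 hours. Endpoints are linearly interpolated between the surrounding concentrations. Abbreviation: GI50, concentration required for 50% inhibition of growth.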 Calls of active or inactive are those of the source. No stated cut-off is given here; in the data, active = GI50 up to about 1.1 µM and inactive = higher.

What was measured:
Experiment in all cases: NCI tumour cell line growth inhibition, 48 h
786-0 = tested on: 786-0
A498 = tested on: A498
CAKI-1 = tested on: CAKI-1
CCRF-CEM = tested on: CCRF-CEM
HL-60 = tested on: HL-60
HOP-62 = tested on: HOP-62
HT-29 = tested on: HT-29
LOX IMVI = tested on: LOX IMVI
NCI-H226 = tested on: NCI-H226
NCI-H460 = tested on: NCI-H460
OVCAR-4 = tested on: OVCAR-4
PC-3 = tested on: PC-3
SK-MEL-5 = tested on: SK-MEL-5
SNB-19 = tested on: SNB-19
SNB-75 = tested on: SNB-75
SR = tested on: SR
TK-10 = tested on: TK-10
UACC-62 = tested on: UACC-62
SF-539 = tested on: SF-539

Measured: GI50

OC1(c2ccc(-c3ccccc3)cc2)c2ccccc2C2=NCCN21 (stereo not given)
inactive: 786-0 16 µM | A498 31.6 µM | CAKI-1 50.6 µM | CCRF-CEM 39.9 µM | HL-60 33.7 µM | HOP-62 16.6 µM | HT-29 21.4 µM | LOX IMVI 34.8 µM | NCI-H226 18.3 µM | NCI-H460 45.8 µM | OVCAR-4 56.8 µM | PC-3 11.9 µM | SK-MEL-5 19.8 µM | SNB-19 15.4 µM | SNB-75 19.3 µM | SR 33.8 µM | TK-10 > 100 µM | UACC-62 20.4 µM

c1cncc(CSc2ncnc3[nH]cnc23)c1
inactive: 786-0 > 100 µM | A498 > 100 µM | CAKI-1 > 100 µM | CCRF-CEM > 100 µM | HL-60 > 100 µM | HOP-62 > 100 µM | HT-29 > 100 µM | LOX IMVI > 100 µM | NCI-H226 > 100 µM | NCI-H460 > 100 µM | OVCAR-4 > 100 µM | PC-3 > 100 µM | SK-MEL-5 > 100 µM | SNB-19 > 100 µM | SNB-75 > 100 µM | SR > 100 µM | TK-10 > 100 µM | UACC-62 > 100 µM

Cc1[nH]c2ccccc2c1-c1cc(-c2cc(-c3c(C)[nH]c4ccccc34)nc(N)n2)nc(N)n1
inactive: 786-0 > 100 µM | A498 > 100 µM | CAKI-1 > 100 µM | HL-60 > 100 µM | HOP-62 > 100 µM | HT-29 > 100 µM | LOX IMVI > 100 µM | NCI-H226 37.2 µM | NCI-H460 > 100 µM | OVCAR-4 > 100 µM | PC-3 > 100 µM | SF-539 > 100 µM | SK-MEL-5 > 100 µM | SNB-19 > 100 µM | SR 86.3 µM | TK-10 > 100 µM | UACC-62 > 100 µM

O=C1C(NS(=O)(=O)c2ccccc2)=C(N(Cc2ccccc2)Cc2ccccc2)C(=O)c2ccccc21
inactive: 786-0 49.3 µM | CAKI-1 > 100 µM | CCRF-CEM 20.2 µM | HL-60 20.7 µM | HOP-62 41 µM | HT-29 60.3 µM | LOX IMVI 65.3 µM | NCI-H226 64.7 µM | NCI-H460 36.6 µM | OVCAR-4 19.5 µM | PC-3 32.4 µM | SF-539 67.5 µM | SK-MEL-5 80.4 µM | SNB-19 38.6 µM | SNB-75 70.8 µM | SR 22.7 µM | TK-10 66.8 µM | UACC-62 33.4 µM

C1CSCCSCCS1
inactive: 786-0 > 100 µM | CCRF-CEM > 100 µM | HL-60 > 100 µM | HOP-62 > 100 µM | HT-29 > 100 µM | LOX IMVI > 100 µM | NCI-H460 > 100 µM | OVCAR-4 > 100 µM | PC-3 > 100 µM | SF-539 > 100 µM | SK-MEL-5 > 100 µM | SNB-19 > 100 µM | SNB-75 > 100 µM | SR > 100 µM | TK-10 > 100 µM | UACC-62 > 100 µM

O=C(NCc1cccc2ccccc12)N/N=C\c1ccc(Cl)cc1
inactive: 786-0 > 100 µM | CAKI-1 43.2 µM | CCRF-CEM > 100 µM | HL-60 > 100 µM | HOP-62 > 100 µM | HT-29 > 100 µM | LOX IMVI > 100 µM | NCI-H226 > 100 µM | NCI-H460 67 µM | OVCAR-4 > 100 µM | PC-3 > 100 µM | SF-539 > 100 µM | SK-MEL-5 46 µM | SNB-19 > 100 µM | SNB-75 62.8 µM | SR > 100 µM | TK-10 > 100 µM | UACC-62 > 100 µM

Cc1nnc2n(c1=O)CCCN2C
inactive: 786-0 > 100 µM | CCRF-CEM > 100 µM | HL-60 > 100 µM | HOP-62 > 100 µM | HT-29 > 100 µM | LOX IMVI > 100 µM | NCI-H226 > 100 µM | NCI-H460 > 100 µM | OVCAR-4 > 100 µM | PC-3 > 100 µM | SF-539 > 100 µM | SK-MEL-5 > 100 µM | SNB-19 > 100 µM | SNB-75 > 100 µM | SR > 100 µM | TK-10 > 100 µM | UACC-62 > 100 µM

CN1C(c2ccccc2)=CC(=O)C(O)=C(c2ccccc2)S1(=O)=O
inactive: 786-0 > 100 µM | CAKI-1 > 100 µM | CCRF-CEM > 100 µM | HL-60 > 100 µM | HOP-62 > 100 µM | HT-29 > 100 µM | LOX IMVI > 100 µM | NCI-H226 > 100 µM | NCI-H460 > 100 µM | OVCAR-4 > 100 µM | PC-3 > 100 µM | SF-539 > 100 µM | SK-MEL-5 > 100 µM | SNB-19 > 100 µM | SNB-75 > 100 µM | SR > 100 µM | TK-10 > 100 µM | UACC-62 > 100 µM
